Measurements: ChEMBL document CHEMBL4649983, “Selective targeting of the BRG/PB1 bromodomains impairs embryonic and trophoblast stem cell maintenance” (Sci Adv, 2015)
“And” between values parts separate entries of the source, which are not always exact repeats. Identical values can stand only once.

Experiments:
[1] = target: Bromodomain adjacent to zinc finger domain protein 1A (Homo sapiens) (UniProt Q9NRL2); conditions: Compound concentration 10.0 uM, Protein concentration 2.0 uM
[2] = target: Protein polybromo-1 (Homo sapiens) (UniProt Q86U86); conditions: Compound concentration 10.0 uM, Protein concentration 2.0 uM
[3] = target: Bromodomain and WD repeat-containing protein 3 (Homo sapiens) (UniProt Q6RI45); conditions: Compound concentration 10.0 uM, Protein concentration 2.0 uM
Peregrin (Homo sapiens) [4] = target: Peregrin (Homo sapiens) (UniProt P55201); conditions: Compound concentration 10.0 uM, Protein concentration 2.0 uM
[5] = target: ATPase family AAA domain-containing protein 2 (Homo sapiens) (UniProt Q6PL18); conditions: Compound concentration 10.0 uM, Protein concentration 2.0 uM
[6] = target: PH-interacting protein (Homo sapiens) (UniProt Q8WWQ0); conditions: Compound concentration 10.0 uM, Protein concentration 2.0 uM
[7] = target: Protein polybromo-1 (Homo sapiens) (UniProt Q86U86); conditions: Protein concentration 2.0 uM
[8] = target: Transcription initiation factor TFIID subunit 1 (Homo sapiens) (UniProt P21675); conditions: Compound concentration 10.0 uM, Protein concentration 2.0 uM
[9] = target: ATPase family AAA domain-containing protein 2B (Homo sapiens) (UniProt Q9ULI0); conditions: Compound concentration 10.0 uM, Protein concentration 2.0 uM
[10] = target: CREB-binding protein (Homo sapiens) (UniProt Q92793); conditions: Compound concentration 10.0 uM, Protein concentration 2.0 uM
[11] = target: Transcription intermediary factor 1-alpha (Homo sapiens) (UniProt O15164); conditions: Compound concentration 10.0 uM, Protein concentration 2.0 uM
[12] = target: Transcription initiation factor TFIID subunit 1-like (Homo sapiens) (UniProt Q8IZX4); conditions: Compound concentration 10.0 uM, Protein concentration 2.0 uM
[13] = target: Histone acetyltransferase p300 (Homo sapiens) (UniProt Q09472); experiment: Thermal Shift Assay. Domain start/stop: A1040-S1171; conditions: Compound concentration 10.0 uM, Protein concentration 2.0 uM
[14] = target: Protein polybromo-1 (Homo sapiens) (UniProt Q86U86); conditions: Protein concentration 2.0 uM; remark: listed apart in the source
[15] = target: Bromodomain-containing protein 3 (Homo sapiens) (UniProt Q15059); conditions: Compound concentration 10.0 uM, Protein concentration 2.0 uM
[16] = target: Protein polybromo-1 (Homo sapiens) (UniProt Q86U86); experiment: Thermal Shift Assay. Domain start/stop: R487-D598; conditions: Compound concentration 10.0 uM, Protein concentration 2.0 uM
[17] = target: Bromodomain-containing protein 1 (Homo sapiens) (UniProt O95696); conditions: Compound concentration 10.0 uM, Protein concentration 2.0 uM
[18] = target: Histone-lysine N-methyltransferase ASH1L (Homo sapiens) (UniProt Q9NR48); conditions: Compound concentration 10.0 uM, Protein concentration 2.0 uM
[19] = target: Bromodomain and PHD finger-containing protein 3 (Homo sapiens) (UniProt Q9ULD4); conditions: Compound concentration 10.0 uM, Protein concentration 2.0 uM
[20] = target: Bromodomain-containing protein 4 (Homo sapiens) (UniProt O60885); conditions: Compound concentration 10.0 uM, Protein concentration 2.0 uM
[21] = target: Nucleosome-remodeling factor subunit BPTF (Homo sapiens) (UniProt Q12830); conditions: Compound concentration 10.0 uM, Protein concentration 2.0 uM
[22] = target: Transcription intermediary factor 1-beta (Homo sapiens) (UniProt Q13263); conditions: Compound concentration 10.0 uM, Protein concentration 2.0 uM
[23] = target: Protein polybromo-1 (Homo sapiens) (UniProt Q86U86); experiment: Thermal Shift Assay. Domain start/stop: H23-D159; conditions: Compound concentration 10.0 uM, Protein concentration 2.0 uM
[24] = target: Bromodomain adjacent to zinc finger domain protein 2B (Homo sapiens) (UniProt Q9UIF8); conditions: Compound concentration 10.0 uM, Protein concentration 2.0 uM
[25] = target: Histone acetyltransferase KAT2A (Homo sapiens) (UniProt Q92830); conditions: Compound concentration 10.0 uM, Protein concentration 2.0 uM
[26] = target: Bromodomain testis-specific protein (Homo sapiens) (UniProt Q58F21); conditions: Compound concentration 10.0 uM, Protein concentration 2.0 uM
[27] = target: Transcription initiation factor TFIID subunit 1 (Homo sapiens) (UniProt P21675); conditions: Compound concentration 10.0 uM, Protein concentration 2.0 uM; remark: listed apart in the source
[28] = target: Protein polybromo-1 (Homo sapiens) (UniProt Q86U86); conditions: Compound concentration 10.0 uM, Protein concentration 2.0 uM; remark: listed apart in the source
[29] = target: Chromatin remodeling regulator CECR2 (Homo sapiens) (UniProt Q9BXF3); conditions: Compound concentration 10.0 uM, Protein concentration 2.0 uM
[30] = target: Protein polybromo-1 (Homo sapiens) (UniProt Q86U86); conditions: Compound concentration 10.0 uM, Protein concentration 2.0 uM; remark: listed apart in the source
[31] = target: Bromodomain testis-specific protein (Homo sapiens) (UniProt Q58F21); conditions: Compound concentration 10.0 uM, Protein concentration 2.0 uM; remark: listed apart in the source
[32] = target: Nuclear body protein SP140-like protein (Homo sapiens) (UniProt Q9H930); conditions: Compound concentration 10.0 uM, Protein concentration 2.0 uM
[33] = target: Histone acetyltransferase p300 (Homo sapiens) (UniProt Q09472); conditions: Compound concentration 10.0 uM, Protein concentration 2.0 uM
[34] = target: Bromodomain-containing protein 2 (Homo sapiens) (UniProt P25440); conditions: Compound concentration 10.0 uM, Protein concentration 2.0 uM
[35] = target: Bromodomain-containing protein 2 (Homo sapiens) (UniProt P25440); conditions: Compound concentration 10.0 uM, Protein concentration 2.0 uM; remark: listed apart in the source
[36] = target: Bromodomain and WD repeat-containing protein 1 (Homo sapiens) (UniProt Q9NSI6); conditions: Compound concentration 10.0 uM, Protein concentration 2.0 uM
[37] = target: Histone acetyltransferase KAT2B (Homo sapiens) (UniProt Q92831); conditions: Compound concentration 10.0 uM, Protein concentration 2.0 uM
[38] = target: Transcription intermediary factor 1-alpha (Homo sapiens) (UniProt O15164); conditions: Compound concentration 10.0 uM, Protein concentration 2.0 uM; remark: listed apart in the source
[39] = target: SWI/SNF-related matrix-associated actin-dependent regulator of chromatin subfamily A member 2 (Homo sapiens) (UniProt P51531); experiment: Thermal Shift Assay. Domain start/stop: A1373-E1493; conditions: Compound concentration 10.0 uM, Protein concentration 2.0 uM
[40] = target: Bromodomain-containing protein 9 (Homo sapiens) (UniProt Q9H8M2); conditions: Compound concentration 10.0 uM, Protein concentration 2.0 uM
[41] = target: Tripartite motif-containing protein 66 (Homo sapiens) (UniProt O15016); experiment: Thermal Shift Assay. Domain start/stop: M1091-S1218; conditions: Compound concentration 10.0 uM, Protein concentration 2.0 uM
[42] = target: PH-interacting protein (Homo sapiens) (UniProt Q8WWQ0); conditions: Compound concentration 20.0 uM, Protein concentration 25.0 uM
Description: Alphascreen assay. Domain start/stop: D1302-R1434

[43] = target: Bromodomain-containing protein 3 (Homo sapiens) (UniProt Q15059); experiment: Thermal Shift Assay. Domain start/stop: P24-E144; conditions: Compound concentration 10.0 uM, Protein concentration 2.0 uM
[44] = target: SWI/SNF-related matrix-associated actin-dependent regulator of chromatin subfamily A member 4 (Homo sapiens) (UniProt P51532); conditions: Compound concentration 10.0 uM, Protein concentration 2.0 uM
[45] = target: SWI/SNF-related matrix-associated actin-dependent regulator of chromatin subfamily A member 2 (Homo sapiens) (UniProt P51531); conditions: Compound concentration 10.0 uM, Protein concentration 2.0 uM
[46] = target: Transcription initiation factor TFIID subunit 1-like (Homo sapiens) (UniProt Q8IZX4); conditions: Compound concentration 10.0 uM, Protein concentration 2.0 uM; remark: listed apart in the source
[47] = target: Nuclear body protein SP140 (Homo sapiens) (UniProt Q13342); conditions: Compound concentration 10.0 uM, Protein concentration 2.0 uM
[48] = target: Bromodomain adjacent to zinc finger domain protein 2A (Homo sapiens) (UniProt Q9UIF9); conditions: Compound concentration 10.0 uM, Protein concentration 2.0 uM
Peregrin (Homo sapiens) [49] = target: Peregrin (Homo sapiens) (UniProt P55201); conditions: Compound concentration 10.0 uM, Protein concentration 2.0 uM; remark: listed apart in the source
[50] = target: Bromodomain-containing protein 4 (Homo sapiens) (UniProt O60885); conditions: Compound concentration 10.0 uM, Protein concentration 2.0 uM; remark: listed apart in the source
[51] = Compound concentration 100.0 uM

Sequence of SWI/SNF-related matrix-associated actin-dependent regulator of chromatin subfamily A member 2 (Homo sapiens) (P51531 whole entry): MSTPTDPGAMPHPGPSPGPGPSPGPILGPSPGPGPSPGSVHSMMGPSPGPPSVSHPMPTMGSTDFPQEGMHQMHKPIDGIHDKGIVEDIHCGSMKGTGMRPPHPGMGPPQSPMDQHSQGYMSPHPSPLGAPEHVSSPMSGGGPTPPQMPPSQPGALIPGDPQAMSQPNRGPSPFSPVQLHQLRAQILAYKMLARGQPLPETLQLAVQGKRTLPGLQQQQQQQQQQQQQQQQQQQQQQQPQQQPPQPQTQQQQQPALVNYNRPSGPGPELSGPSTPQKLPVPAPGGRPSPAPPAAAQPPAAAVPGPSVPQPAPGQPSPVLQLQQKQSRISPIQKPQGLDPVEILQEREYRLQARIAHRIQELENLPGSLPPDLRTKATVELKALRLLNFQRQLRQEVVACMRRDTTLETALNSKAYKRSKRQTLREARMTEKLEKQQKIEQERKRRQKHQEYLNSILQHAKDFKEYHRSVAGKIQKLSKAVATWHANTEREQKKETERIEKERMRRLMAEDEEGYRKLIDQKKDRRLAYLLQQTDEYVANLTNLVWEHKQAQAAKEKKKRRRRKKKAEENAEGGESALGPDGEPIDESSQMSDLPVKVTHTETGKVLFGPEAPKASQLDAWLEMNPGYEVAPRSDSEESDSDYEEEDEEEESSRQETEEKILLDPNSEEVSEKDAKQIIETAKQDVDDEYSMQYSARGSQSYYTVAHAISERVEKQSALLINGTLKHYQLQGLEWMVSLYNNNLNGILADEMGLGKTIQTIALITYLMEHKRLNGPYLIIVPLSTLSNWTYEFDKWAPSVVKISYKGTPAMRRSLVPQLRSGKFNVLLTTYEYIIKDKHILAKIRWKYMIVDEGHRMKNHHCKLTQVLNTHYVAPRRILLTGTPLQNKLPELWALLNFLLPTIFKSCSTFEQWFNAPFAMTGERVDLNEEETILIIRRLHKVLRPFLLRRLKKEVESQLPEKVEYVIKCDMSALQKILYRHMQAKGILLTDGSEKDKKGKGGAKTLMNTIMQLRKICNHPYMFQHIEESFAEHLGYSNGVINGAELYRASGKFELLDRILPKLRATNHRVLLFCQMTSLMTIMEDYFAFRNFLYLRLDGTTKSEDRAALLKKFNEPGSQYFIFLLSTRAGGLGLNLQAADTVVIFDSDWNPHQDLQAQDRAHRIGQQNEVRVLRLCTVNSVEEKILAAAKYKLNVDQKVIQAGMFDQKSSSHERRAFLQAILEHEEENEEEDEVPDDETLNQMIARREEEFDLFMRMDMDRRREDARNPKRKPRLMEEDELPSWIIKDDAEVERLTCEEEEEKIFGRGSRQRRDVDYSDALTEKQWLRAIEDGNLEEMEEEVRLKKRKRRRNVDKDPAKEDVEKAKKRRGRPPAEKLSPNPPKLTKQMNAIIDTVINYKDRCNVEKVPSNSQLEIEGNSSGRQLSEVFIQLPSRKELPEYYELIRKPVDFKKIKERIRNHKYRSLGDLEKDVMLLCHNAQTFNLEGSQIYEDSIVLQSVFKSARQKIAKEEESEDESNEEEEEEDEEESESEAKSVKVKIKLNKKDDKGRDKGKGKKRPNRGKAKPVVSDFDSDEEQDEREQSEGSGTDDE
Sequence of Protein polybromo-1 (Homo sapiens) (Q86U86 whole entry, the tested form may be a part): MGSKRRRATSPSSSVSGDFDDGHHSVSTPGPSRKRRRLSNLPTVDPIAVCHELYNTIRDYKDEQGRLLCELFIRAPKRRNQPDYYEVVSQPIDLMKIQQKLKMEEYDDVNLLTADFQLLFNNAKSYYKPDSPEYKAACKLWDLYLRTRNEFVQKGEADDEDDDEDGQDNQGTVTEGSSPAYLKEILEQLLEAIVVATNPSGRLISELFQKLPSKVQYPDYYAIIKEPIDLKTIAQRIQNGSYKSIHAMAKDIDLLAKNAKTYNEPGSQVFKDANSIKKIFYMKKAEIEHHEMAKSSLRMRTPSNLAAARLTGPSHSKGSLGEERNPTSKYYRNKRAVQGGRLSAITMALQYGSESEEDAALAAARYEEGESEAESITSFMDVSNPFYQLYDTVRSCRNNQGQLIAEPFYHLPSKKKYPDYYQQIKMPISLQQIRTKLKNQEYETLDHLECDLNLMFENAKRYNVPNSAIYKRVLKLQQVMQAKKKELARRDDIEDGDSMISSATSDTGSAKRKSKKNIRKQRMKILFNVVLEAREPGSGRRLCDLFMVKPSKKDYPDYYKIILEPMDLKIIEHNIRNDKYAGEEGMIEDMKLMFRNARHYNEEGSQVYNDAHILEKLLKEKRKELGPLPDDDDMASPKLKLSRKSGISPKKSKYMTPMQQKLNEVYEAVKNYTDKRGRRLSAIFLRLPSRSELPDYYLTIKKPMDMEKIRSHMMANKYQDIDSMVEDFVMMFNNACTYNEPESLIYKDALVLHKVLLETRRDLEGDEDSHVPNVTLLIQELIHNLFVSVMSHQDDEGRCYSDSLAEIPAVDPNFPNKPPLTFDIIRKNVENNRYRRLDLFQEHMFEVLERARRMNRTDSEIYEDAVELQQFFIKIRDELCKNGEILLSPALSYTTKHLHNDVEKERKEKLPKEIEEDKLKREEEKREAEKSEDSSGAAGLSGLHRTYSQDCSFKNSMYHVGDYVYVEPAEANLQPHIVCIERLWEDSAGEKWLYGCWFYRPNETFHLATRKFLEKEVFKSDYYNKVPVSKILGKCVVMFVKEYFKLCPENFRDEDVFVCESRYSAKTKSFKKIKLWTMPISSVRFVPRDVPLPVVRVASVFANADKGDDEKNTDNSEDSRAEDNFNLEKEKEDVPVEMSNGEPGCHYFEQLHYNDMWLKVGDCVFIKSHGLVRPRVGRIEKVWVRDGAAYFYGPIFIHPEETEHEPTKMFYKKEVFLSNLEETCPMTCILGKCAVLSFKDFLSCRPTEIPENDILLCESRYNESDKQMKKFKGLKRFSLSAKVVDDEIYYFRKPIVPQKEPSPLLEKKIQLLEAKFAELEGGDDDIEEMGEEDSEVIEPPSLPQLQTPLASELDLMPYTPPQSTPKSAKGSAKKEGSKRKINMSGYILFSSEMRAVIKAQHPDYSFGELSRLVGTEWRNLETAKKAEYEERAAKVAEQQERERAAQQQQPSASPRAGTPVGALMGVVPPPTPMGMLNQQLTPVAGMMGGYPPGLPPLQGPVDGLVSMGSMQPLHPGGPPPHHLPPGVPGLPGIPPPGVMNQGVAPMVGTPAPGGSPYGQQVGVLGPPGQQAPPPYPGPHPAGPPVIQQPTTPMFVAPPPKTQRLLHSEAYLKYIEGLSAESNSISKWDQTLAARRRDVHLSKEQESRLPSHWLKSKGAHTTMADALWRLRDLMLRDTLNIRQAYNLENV
Sequence of SWI/SNF-related matrix-associated actin-dependent regulator of chromatin subfamily A member 4 (Homo sapiens) (P51532 whole entry): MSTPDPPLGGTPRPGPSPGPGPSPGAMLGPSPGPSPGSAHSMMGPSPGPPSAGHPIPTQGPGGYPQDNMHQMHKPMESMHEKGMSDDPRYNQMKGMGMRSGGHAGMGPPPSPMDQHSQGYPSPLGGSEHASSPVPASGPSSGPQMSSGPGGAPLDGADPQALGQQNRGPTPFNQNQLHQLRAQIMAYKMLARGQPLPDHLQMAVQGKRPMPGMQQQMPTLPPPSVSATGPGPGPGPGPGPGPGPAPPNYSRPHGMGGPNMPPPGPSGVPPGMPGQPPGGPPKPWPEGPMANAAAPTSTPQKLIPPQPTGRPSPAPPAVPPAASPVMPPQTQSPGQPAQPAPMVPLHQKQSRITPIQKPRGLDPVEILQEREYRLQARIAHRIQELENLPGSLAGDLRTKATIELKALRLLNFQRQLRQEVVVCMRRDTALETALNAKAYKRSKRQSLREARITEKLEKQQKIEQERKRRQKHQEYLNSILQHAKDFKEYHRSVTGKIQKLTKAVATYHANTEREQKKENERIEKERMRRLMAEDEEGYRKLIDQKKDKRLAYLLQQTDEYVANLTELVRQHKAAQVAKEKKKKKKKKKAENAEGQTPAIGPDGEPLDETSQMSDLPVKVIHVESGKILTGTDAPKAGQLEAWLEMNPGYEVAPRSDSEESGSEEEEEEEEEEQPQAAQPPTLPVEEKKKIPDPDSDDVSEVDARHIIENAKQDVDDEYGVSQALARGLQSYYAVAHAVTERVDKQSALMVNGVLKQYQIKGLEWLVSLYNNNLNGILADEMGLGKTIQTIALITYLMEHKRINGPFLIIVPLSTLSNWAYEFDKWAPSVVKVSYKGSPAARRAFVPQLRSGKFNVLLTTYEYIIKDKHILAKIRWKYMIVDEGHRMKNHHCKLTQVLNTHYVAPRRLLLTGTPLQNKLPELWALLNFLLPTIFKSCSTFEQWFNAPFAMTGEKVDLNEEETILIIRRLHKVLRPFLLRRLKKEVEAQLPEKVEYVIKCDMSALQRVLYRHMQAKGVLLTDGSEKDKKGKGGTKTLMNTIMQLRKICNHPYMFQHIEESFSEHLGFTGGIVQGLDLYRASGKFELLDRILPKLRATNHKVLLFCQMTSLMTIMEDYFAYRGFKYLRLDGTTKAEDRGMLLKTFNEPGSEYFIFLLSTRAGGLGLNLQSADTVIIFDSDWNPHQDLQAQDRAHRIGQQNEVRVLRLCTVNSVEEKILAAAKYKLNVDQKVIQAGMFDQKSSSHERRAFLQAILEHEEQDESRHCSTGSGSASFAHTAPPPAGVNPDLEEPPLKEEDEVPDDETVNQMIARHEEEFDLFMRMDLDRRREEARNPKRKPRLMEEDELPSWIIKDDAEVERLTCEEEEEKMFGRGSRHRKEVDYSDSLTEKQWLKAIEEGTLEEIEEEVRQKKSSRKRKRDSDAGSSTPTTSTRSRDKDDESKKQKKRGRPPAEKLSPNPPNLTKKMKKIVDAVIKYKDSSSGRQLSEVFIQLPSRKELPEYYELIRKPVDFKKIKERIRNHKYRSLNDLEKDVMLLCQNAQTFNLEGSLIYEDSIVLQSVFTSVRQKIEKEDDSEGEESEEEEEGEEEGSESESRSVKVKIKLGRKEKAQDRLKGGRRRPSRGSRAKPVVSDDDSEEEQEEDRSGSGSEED

Question: What does the source list for `O=C(/C=C/N1C[C@H]2C[C@@H]1CN2c1ccccn1)c1ccccc1O`?
Answer: ΔTm [1]: 0.92 °C; ΔTm [2]: 10 °C; ΔTm [3]: 1.25 °C; ΔTm (Peregrin (Homo sapiens) [4]): 1.12 °C; ΔTm [5]: 0.59 °C and -0.66 °C; ΔTm [6]: 1.62 °C; ΔTm ([7]; Compound concentration 10.0 uM): 1.13 °C; ΔTm [7, 51]: 4.63 °C; ΔTm [8]: 0.75 °C; ΔTm [9]: -0.01 °C; ΔTm [10]: -0.23 °C and 0.38 °C; ΔTm [11]: 0.65 °C; ΔTm [12]: 0.34 °C; ΔTm [13]: 0.19 °C; ΔTm ([14]; Compound concentration 10.0 uM): 0.98 °C; ΔTm [14, 51]: 2.54 °C; ΔTm [15]: 0.84 °C; ΔTm [16]: 0.77 °C; ΔTm [17]: 0.2 °C and 0.15 °C; ΔTm [18]: 0.52 °C; ΔTm [19]: 1.15 °C; ΔTm [20]: 0.36 °C and -0.62 °C; ΔTm [21]: 0.61 °C; ΔTm [22]: 0.43 °C; ΔTm [23]: 0.05 °C; ΔTm [24]: 0.24 °C; ΔTm [25]: 0.77 °C; ΔTm [26]: 0.83 °C; ΔTm [27]: -0.08 °C; ΔTm [28]: 0.85 °C; ΔTm [29]: 0.39 °C; ΔTm [30]: 0.54 °C; ΔTm [31]: 1.04 °C; ΔTm [32]: 1.02 °C; ΔTm [33]: 0.24 °C; ΔTm [34]: 0 °C; ΔTm [35]: 0.4 °C; ΔTm [36]: 0.96 °C; ΔTm [37]: 0.71 °C and -0.1 °C; ΔTm [38]: 0.79 °C; ΔTm [39]: 5.23 °C; ΔTm [40]: 1.22 °C and 0.26 °C; ΔTm [41]: 0.5 °C; ΔTm [42]: -0.35 °C; ΔTm [43]: 0.14 °C; ΔTm [44]: 5.19 °C and 7.18 °C (2×); ΔTm [45]: 6.62 °C and 8.52 °C; ΔTm [46]: 1.1 °C; ΔTm [47]: 1.62 °C; ΔTm [48]: 0.02 °C; ΔTm (Peregrin (Homo sapiens) [49]): -0.08 °C; ΔTm [50]: 0.56 °C
